From PubChem BioAssay (NCI)
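Briefly, cells in 96-well plates were exposed to five compound concentrations for 48 h, and endpoints were estimated by linear interpolation. TGI marks complete inhibition of growth.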

Assays:
Assay in all cases: NCI tumour cell line growth inhibition, 48 h
786-0 renal = system: 786-0 renal
A498 renal = system: A498 renal
A549 NSCLC = system: A549 NSCLC
ACHN renal = system: ACHN renal
CAKI-1 renal = system: CAKI-1 renal
CCRF-CEM leukemia = system: CCRF-CEM leukemia
COLO 205 colon = system: COLO 205 colon
DLD-1 colon = system: DLD-1 colon
DMS 114 small cell lung = system: DMS 114 small cell lung
DMS 273 small cell lung = system: DMS 273 small cell lung
EKVX NSCLC = system: EKVX NSCLC
HCC-2998 colon = system: HCC-2998 colon
HCT-116 colon = system: HCT-116 colon
HCT-15 colon = system: HCT-15 colon
HL-60(TB) leukemia = system: HL-60(TB) leukemia
HOP-18 NSCLC = system: HOP-18 NSCLC
HOP-62 NSCLC = system: HOP-62 NSCLC
HOP-92 NSCLC = system: HOP-92 NSCLC
HT29 colon = system: HT29 colon
IGROV1 ovarian = system: IGROV1 ovarian
K-562 leukemia = system: K-562 leukemia
KM12 colon = system: KM12 colon
KM20L2 colon = system: KM20L2 colon
LOX IMVI melanoma = system: LOX IMVI melanoma
LXFL 529 NSCLC = system: LXFL 529 NSCLC
M14 melanoma = system: M14 melanoma
M19-MEL melanoma = system: M19-MEL melanoma
MALME-3M melanoma = system: MALME-3M melanoma
NCI-H226 lung = system: NCI-H226 lung
NCI-H23 lung = system: NCI-H23 lung
NCI-H522 lung = system: NCI-H522 lung
OVCAR-3 ovarian = system: OVCAR-3 ovarian
OVCAR-4 ovarian = system: OVCAR-4 ovarian
OVCAR-5 ovarian = system: OVCAR-5 ovarian
OVCAR-8 ovarian = system: OVCAR-8 ovarian
RPMI-8226 leukemia = system: RPMI-8226 leukemia
RXF 393 renal = system: RXF 393 renal
SF-268 CNS = system: SF-268 CNS
SF-295 CNS = system: SF-295 CNS
SF-539 CNS = system: SF-539 CNS
SK-MEL-2 melanoma = system: SK-MEL-2 melanoma
SK-MEL-28 melanoma = system: SK-MEL-28 melanoma
SK-MEL-5 melanoma = system: SK-MEL-5 melanoma
SK-OV-3 ovarian = system: SK-OV-3 ovarian
SN12C renal = system: SN12C renal
SNB-19 CNS = system: SNB-19 CNS
SNB-75 CNS = system: SNB-75 CNS
SNB-78 CNS = system: SNB-78 CNS
SW-620 colon = system: SW-620 colon
TK-10 renal = system: TK-10 renal
U251 CNS = system: U251 CNS
UACC-257 melanoma = system: UACC-257 melanoma
UACC-62 melanoma = system: UACC-62 melanoma
UO-31 renal = system: UO-31 renal
XF 498 CNS = system: XF 498 CNS
MCF7 breast = system: MCF7 breast
MOLT-4 leukemia = system: MOLT-4 leukemia
NCI-H460 lung = system: NCI-H460 lung
NCI/ADR-RES ovarian = system: NCI/ADR-RES ovarian
P388 leukemia = system: P388 leukemia
P388/ADR leukemia = system: P388/ADR leukemia
SN12K1 renal = system: SN12K1 renal
RXF-631 renal = system: RXF-631 renal
SR leukemia = system: SR leukemia

CN(CCN1C(=O)c2cc([N+](=O)[O-])cc3cc([N+](=O)[O-])cc(c23)C1=O)CCN1C(=O)c2cc([N+](=O)[O-])cc3cc([N+](=O)[O-])cc(c23)C1=O
TGI (786-0 renal): 13.7 µM
TGI (A498 renal): > 100 µM
TGI (A549 NSCLC): > 100 µM
TGI (ACHN renal): > 100 µM
TGI (CAKI-1 renal): 0.618 µM
TGI (CCRF-CEM leukemia): 4.03 µM
TGI (COLO 205 colon): 14 µM
TGI (DLD-1 colon): 18.8 µM
TGI (DMS 114 small cell lung): 46.9 µM
TGI (DMS 273 small cell lung): 18.4 µM
TGI (EKVX NSCLC): > 100 µM
TGI (HCC-2998 colon): 23.8 µM
TGI (HCT-116 colon): 9.18 µM
TGI (HCT-15 colon): 8.65 µM
TGI (HL-60(TB) leukemia): 0.536 µM
TGI (HOP-18 NSCLC): > 100 µM
TGI (HOP-62 NSCLC): > 100 µM
TGI (HOP-92 NSCLC): 2.2 µM
TGI (HT29 colon): > 100 µM
TGI (IGROV1 ovarian): 5.51 µM
TGI (K-562 leukemia): > 100 µM
TGI (KM12 colon): > 35 µM
TGI (KM20L2 colon): > 33.5 µM
TGI (LOX IMVI melanoma): 1.44 µM
TGI (LXFL 529 NSCLC): 20.1 µM
TGI (M14 melanoma): 9.23 µM
TGI (M19-MEL melanoma): 4.4 µM
TGI (MALME-3M melanoma): 4.31 µM
TGI (NCI-H226 lung): 9.69 µM
TGI (NCI-H23 lung): 27.9 µM
TGI (NCI-H522 lung): 1.86 µM
TGI (OVCAR-3 ovarian): > 28 µM
TGI (OVCAR-4 ovarian): > 100 µM
TGI (OVCAR-5 ovarian): > 45.6 µM
TGI (OVCAR-8 ovarian): 29.6 µM
TGI (RPMI-8226 leukemia): > 21.2 µM
TGI (RXF 393 renal): 1.04 µM
TGI (SF-268 CNS): > 100 µM
TGI (SF-295 CNS): > 100 µM
TGI (SF-539 CNS): > 58.8 µM
TGI (SK-MEL-2 melanoma): 5.21 µM
TGI (SK-MEL-28 melanoma): 20.3 µM
TGI (SK-MEL-5 melanoma): 8.49 µM
TGI (SK-OV-3 ovarian): > 71.5 µM
TGI (SN12C renal): > 100 µM
TGI (SNB-19 CNS): > 100 µM
TGI (SNB-75 CNS): > 100 µM
TGI (SNB-78 CNS): 5.91 µM
TGI (SW-620 colon): 16.7 µM
TGI (TK-10 renal): > 100 µM
TGI (U251 CNS): > 100 µM
TGI (UACC-257 melanoma): 9.42 µM
TGI (UACC-62 melanoma): 3.8 µM
TGI (UO-31 renal): > 20.8 µM
TGI (XF 498 CNS): 23.1 µM

COc1ccc2nc3c(C(=O)NCCN(C)C)cccc3cc2c1
TGI (A498 renal): 3.08 µM
TGI (A549 NSCLC): 5.26 µM
TGI (CCRF-CEM leukemia): 8.14 µM
TGI (COLO 205 colon): 3.74 µM
TGI (DMS 114 small cell lung): 4.48 µM
TGI (DMS 273 small cell lung): 6.15 µM
TGI (EKVX NSCLC): 6.25 µM
TGI (HCC-2998 colon): 16.2 µM
TGI (HCT-116 colon): 9.27 µM
TGI (HCT-15 colon): 9.84 µM
TGI (HL-60(TB) leukemia): 4.64 µM
TGI (HOP-18 NSCLC): > 100 µM
TGI (HOP-62 NSCLC): 7.71 µM
TGI (HOP-92 NSCLC): 5.76 µM
TGI (HT29 colon): 6.37 µM
TGI (IGROV1 ovarian): 6.77 µM
TGI (K-562 leukemia): 17.1 µM
TGI (KM12 colon): 13 µM
TGI (KM20L2 colon): 4.36 µM
TGI (LOX IMVI melanoma): 3.59 µM
TGI (MALME-3M melanoma): > 21.4 µM
TGI (MCF7 breast): 7.22 µM
TGI (MOLT-4 leukemia): 8.4 µM
TGI (NCI-H226 lung): 4.14 µM
TGI (NCI-H23 lung): 5.09 µM
TGI (NCI-H460 lung): 3.65 µM
TGI (NCI/ADR-RES ovarian): 4.99 µM
TGI (OVCAR-3 ovarian): > 28.6 µM
TGI (OVCAR-4 ovarian): 8.49 µM
TGI (OVCAR-5 ovarian): 5.9 µM
TGI (OVCAR-8 ovarian): 4.46 µM
TGI (P388 leukemia): 1.49 µM
TGI (P388/ADR leukemia): 3.05 µM
TGI (RPMI-8226 leukemia): 6.23 µM
TGI (RXF 393 renal): 5.28 µM
TGI (SF-268 CNS): 12.1 µM
TGI (SF-295 CNS): 6.2 µM
TGI (SF-539 CNS): 7.79 µM
TGI (SK-MEL-2 melanoma): 5.44 µM
TGI (SK-MEL-28 melanoma): 8.79 µM
TGI (SK-MEL-5 melanoma): 3.28 µM
TGI (SK-OV-3 ovarian): 7.3 µM
TGI (SN12C renal): 6.93 µM
TGI (SN12K1 renal): 3.27 µM
TGI (SNB-19 CNS): 7.58 µM
TGI (SNB-75 CNS): 9 µM
TGI (SNB-78 CNS): 18.3 µM
TGI (SW-620 colon): 5.1 µM
TGI (U251 CNS): 14.2 µM
TGI (UACC-257 melanoma): 5.01 µM
TGI (UACC-62 melanoma): 3.33 µM
TGI (UO-31 renal): 3.97 µM
TGI (XF 498 CNS): 4.01 µM

CC1=Nc2ccccc2S/C1=C(/C)NNS(=O)(=O)c1ccc(C)cc1
TGI (786-0 renal): > 100 µM
TGI (A498 renal): > 100 µM
TGI (A549 NSCLC): > 100 µM
TGI (ACHN renal): > 100 µM
TGI (CAKI-1 renal): > 100 µM
TGI (CCRF-CEM leukemia): 86.7 µM
TGI (COLO 205 colon): > 100 µM
TGI (DMS 114 small cell lung): > 100 µM
TGI (DMS 273 small cell lung): > 100 µM
TGI (EKVX NSCLC): > 100 µM
TGI (HCC-2998 colon): > 100 µM
TGI (HCT-116 colon): > 100 µM
TGI (HCT-15 colon): > 100 µM
TGI (HL-60(TB) leukemia): > 100 µM
TGI (HOP-18 NSCLC): > 100 µM
TGI (HOP-62 NSCLC): > 100 µM
TGI (HOP-92 NSCLC): > 100 µM
TGI (HT29 colon): > 100 µM
TGI (IGROV1 ovarian): > 100 µM
TGI (K-562 leukemia): > 100 µM
TGI (KM12 colon): > 100 µM
TGI (KM20L2 colon): > 100 µM
TGI (LOX IMVI melanoma): > 100 µM
TGI (LXFL 529 NSCLC): > 100 µM
TGI (M14 melanoma): > 100 µM
TGI (M19-MEL melanoma): > 100 µM
TGI (MALME-3M melanoma): > 100 µM
TGI (MOLT-4 leukemia): > 100 µM
TGI (NCI-H226 lung): > 100 µM
TGI (NCI-H23 lung): > 100 µM
TGI (NCI-H460 lung): > 100 µM
TGI (NCI-H522 lung): > 100 µM
TGI (OVCAR-3 ovarian): > 100 µM
TGI (OVCAR-4 ovarian): > 100 µM
TGI (OVCAR-5 ovarian): > 100 µM
TGI (OVCAR-8 ovarian): > 100 µM
TGI (RPMI-8226 leukemia): > 100 µM
TGI (RXF 393 renal): > 100 µM
TGI (RXF-631 renal): > 100 µM
TGI (SF-268 CNS): > 100 µM
TGI (SF-295 CNS): > 100 µM
TGI (SF-539 CNS): > 100 µM
TGI (SK-MEL-2 melanoma): > 100 µM
TGI (SK-MEL-28 melanoma): > 100 µM
TGI (SK-MEL-5 melanoma): > 100 µM
TGI (SK-OV-3 ovarian): > 100 µM
TGI (SN12C renal): > 100 µM
TGI (SNB-19 CNS): > 100 µM
TGI (SNB-75 CNS): > 100 µM
TGI (SNB-78 CNS): > 100 µM
TGI (SR leukemia): > 100 µM
TGI (SW-620 colon): > 100 µM
TGI (TK-10 renal): > 100 µM
TGI (U251 CNS): > 100 µM
TGI (UACC-257 melanoma): > 100 µM
TGI (UACC-62 melanoma): > 100 µM
TGI (UO-31 renal): > 100 µM
